Test results published in patent US20240165250A1, “Bifunctional Folate Receptor Binding Compounds” (Lycia Therapeutics, Inc., priority 2021, published 2024).
Where two headings read alike, the source gives them in different places.

Columns and labels:
TNFα trimer = target: T1, TNFα trimer (Homo sapiens, UniProt P01375); test: SPR binding kinetics of compounds to TNFα trimer (single-cycle kinetics); details: for kon: read-out: ka
T1 construct: Ligand MW (Da) 53729.8; fused on or other part: Three copies of soluble TNF-alpha joined by linkers into one polypeptide; The protein is biotinylated and captured on immobilised streptavidin
T1 sequence (P01375 88-233 limits assumed): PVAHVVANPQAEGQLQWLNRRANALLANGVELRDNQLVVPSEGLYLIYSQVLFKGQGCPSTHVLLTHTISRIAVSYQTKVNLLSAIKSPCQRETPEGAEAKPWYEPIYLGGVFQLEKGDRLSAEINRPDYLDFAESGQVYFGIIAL
Method: Streptavidin 100 μg/mL Streptavidin (Invitrogen Cat #:434302) diluted in 10 mM sodium acetate, pH 4.5) was immobilized to both the reference and active surfaces as described in Example 51. The surfaces were conditioned with three injections of running Buffer (10 mM HEPES, 150 mM NaCl, 0.05% T20, pH 7.5, 2% DMSO) at a flow rate of 10 μL/min, Contact time: 60 s. Flow rate: 10 μL/min. The active surface was treated with biotinylated linked TNFα timer 20 μg/mL diluted in running buffer at a flow rate of 5 μL/min contact time: 600 s, yielding a final response of ˜3000 RU. Example compounds were then serially diluted 1:1 in running buffer (10 mM HEPES, 150 mM NaCl, 0.05% T20, pH 7.5, 2% DMSO) from 30 uM to 937.5 nM and flowed over the active and reference surfaces from lowest concentration to greatest concentration in the single-cycle kinetics format, and then allowed to dissociate in running buffer for 7200 s, at 30 μL/min. Sensorgrams were solvent corrected, double-referenced, and the data fitted and analyzed in Biacore Insight Evaluation Software Version 3.0.11.15423.

TNFα [1] = target: T2, TNFα (Homo sapiens, UniProt P01375+P14207); test: Compound mediated degradation of TNFα in THP-1 cells (pulse-chase, TNFα-biotin blot); type: cell-based; details: PMA differentiated THP-1 cells, compound 10 μM, FIG. 5
T2 construct: made in house
T2 sequence (P01375 77-233 limits assumed, species assumed): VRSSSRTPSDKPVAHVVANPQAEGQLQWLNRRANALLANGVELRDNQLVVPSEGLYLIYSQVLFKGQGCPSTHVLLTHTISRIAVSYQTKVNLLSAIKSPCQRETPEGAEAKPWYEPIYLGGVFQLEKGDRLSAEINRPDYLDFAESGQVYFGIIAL
T2 sequence (P14207 17-230 limits assumed, species assumed): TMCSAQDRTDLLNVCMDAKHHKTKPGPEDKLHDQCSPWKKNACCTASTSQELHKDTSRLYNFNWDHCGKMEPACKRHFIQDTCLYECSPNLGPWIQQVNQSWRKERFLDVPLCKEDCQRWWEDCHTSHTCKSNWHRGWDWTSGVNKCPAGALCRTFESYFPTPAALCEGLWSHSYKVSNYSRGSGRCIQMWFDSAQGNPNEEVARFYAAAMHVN
Method: To measure degradation of internalized TNFα, a pulse-chase experiment was performed whereby cells were treated with +/− example compounds and/or +/− protease inhibitors and incubated for 1 hr in media containing TNFα-biotin to allow uptake and then washed and incubated 90 minutes in fresh media without TNFα to allow degradation. Samples were collected after the pulse phase (60 min) and chase phase (90 min) to measure uptake and degradation, respectively.
THP-1 cells were seeded at 100,000 cells per well of 12 well plate with 1 mL RPMI+10% w/w FBS+1× penicillin/streptomycin and differentiated using 20 ng/mL phorbol myristate acetate (Sigma-Aldrich #P8139) for 72 hrs. After 72 hrs media was replaced with 1 ml RPMI+10% v/v FBS+1× penicillin/streptomycin and TNFα-biotin (AcroBiosystems #50-201-9879) was added to 12.5 nM final concentration. Where noted example compound was added at 10 μM final concentration and protease inhibitors were added at 100 ug/ml final concentration for leupeptin (Sigma-Aldrich #L2884) or 1 μg/ml final concentration for pepstatin A (Sigma-Aldrich #BP26715). […] Relative quantification of bands was performed using the ImageLab software (BioRad) with endogenously biotinylated proteins serving as endogenous controls. […]

TNFα [2] = target: T2, TNFα; test: Compound mediated uptake of TNFα-pHrodo in THP-1 cells (flow cytometry); type: cell-based; details: 125 nM-20 μM, 24 hrs, FIG. 4
Method: THP-1 cells, a monocytic leukemia cell line that endogenously express folate receptor beta, were used as a model system to measure example compound stimulated uptake of in-house produced TNFα conjugated to the pH sensitive fluorescent dye pHrodo green (ThermoFisher Scientific #P35369).
THP-1 cells were maintained in RPMI (Gibco #61870143) with 10% v/v FBS (VWR #89510-188) with 2 mM L-alanyl-L-glutamine dipeptide, 100 units/ml penicillin and 100 ug/ml streptomycin (Gibco #15140148). Cells were pelleted, resuspended in folate-free RPMI (Gibco #27016021) and seeded at 50,000 cells per well of a 96 well plate. Example compound was added to each well as a log 2 dilution series ranging from 20 μM to 125 nM final concentration. Cells were incubated for 24 hrs and washed/resuspended in phosphate buffered saline (pH 7.4) with 1% w/v BSA. Uptake was measured using a Novocyte Advanteon Flow Cytometer (Agilent Technologies) with the […] and FITC detection configuration.

TNFα [3] = target: T2, TNFα; test: Compound mediated depletion of HiBiT-TNFα from the medium of THP-1 cells; type: cell-based; details: compound 10 μM, FIG. 6
Source text: An in-house recombinantly expressed and purified N-terminal fusion of HiBiT with TNFα was used to measure example compound-stimulated depletion from the media. HiBiT and largeBiT are split nanoluciferase polypeptides that result in complementation of luciferase activity in the presence of both polypeptides. The level of HiBit-TNFα in the media over time can be measure by sampling the media and mixing with the Nano-Glo HiBiT Extracellular Detection Reagent (Promega Corporation) containing the largeBiT polypeptide and nanoluciferase substrate.
THP-1 cells were seeded at 100,000 cells per well of 12 well plate with 1 mL RPMI+10% w/w FBS+1× penicillin/streptomycin and differentiated using 20 ng/mL phorbol myristate acetate (Sigma-Aldrich #P8139) for 72 hrs. After 72 hrs the growth medium was replaced with 1 ml RPMI+10% v/v FBS+1× penicillin/streptomycin containing 12.5 nM HiBit-TNFα. Where noted example compound was added at 10 μM final concentration. The medium was sampled (50 μl) at 0, 24, 48 and 96 hr and luciferase activity was measured using the Nano-Glo HiBiT Extracellular Detection Reagent.

FOLR2 = target: T3, FOLR2 (Homo sapiens, UniProt P14207); test: SPR binding kinetics of compounds to folate receptor (FOLR2); details: immobilized FOLR2, compound 3.125-100 nM
T3 construct: purchased Acro Biosystems FO2-H5223-100 μg
T3 sequence (P14207 17-230): as the sequence (P14207 17-230 limits assumed, species assumed) above
Method: A Biacore 8K+ was used to measure the association and dissociation rates of example compounds to FOLR2 (Acro Biosystems, Cat: FO2-H5223-100 μg). Briefly, FOLR2 was reconstituted according to the manufacture's instructions to 200 μg/mL. Both the active and reference surfaces of a Cytiva CM5 Series S Sensor Chip were activated with a 1:1 mixture of 400 mM EDC and 100 mM NHS for 420 s at 10 μL/min. 25 μg/mL FOLR2 diluted in Sodium Acetate pH 5.5 was injected on the active channel (Flow Cell 2) for 420 s at 10p/min. Both the reference and active surfaces were then capped with 1M ethanolamine, pH 8.5 for 420 s, achieving an immobilization level of ˜4200 RU. Example compounds were serially diluted 1:1 in running buffer (10 mM HEPES, 150 mM NaCl, 0.05% T20, pH 7.5, 2% DMSO) from 100 nM to 3.125 nM and flowed over the active and reference surfaces for 120 s, and then allowed to dissociate in running buffer for 600 s, at 30 uL/min. The FOLR2 immobilized active surface and the reference surface were regenerated with a 30 s pulse of Sodium Acetate pH 5.5 at 30 μL/min. Sensorgrams were solvent corrected, double-referenced, and the data fitted and analyzed in Biacore Insight Evaluation Software Version 3.0.11.15423.
FIG. 1 illustrates the SPR sensorgrams for various concentrations of compound I-21 (3.125 nM to 100 nM) to folate receptor 2 (FOLR2), illustrating 1:1 binding.

[4] = SPR single cycle kinetics, immobilized TNFα trimer
[5] = SPR single cycle kinetics, immobilized TNFα trimer, compound 937.5 nM-30 uM

## Nc1nc(O)c2nc(CNc3ccc(C(=O)N[C@@H](CCC(=O)NCCOCCOCCOCCOCc4cn(CCCCCOc5ccc(-c6ccc7nc(COc8cccc(N9CCCC9=O)c8)n(Cc8ccccc8OC(F)F)c7c6)cn5)nn4)C(=O)O)cc3)cnc2n1 [Compound I-25, (S)-18-(4-(((2-amino-4-hydroxypteridin-6-yl)methyl)amino)benzamido)-1-(1-(5-((5-(1-(2-(difluoromethoxy)benzyl)-2-((3-(2-oxopyrrolidin-1-yl)phenoxy)methyl)-1H-benzo[d]imidazol-6-yl)pyridin-2-yl)oxy)pentyl)-1H-1,2,3-triazol-4-yl)-15-oxo-2,5,8,11-tetraoxa-14-azanonadecan-19-oic acid]
TNFα trimer; [4]
  Kd: 4.18 nM
TNFα trimer; [5]
  kon: 874 M⁻¹ s⁻¹

## Cc1nc2cc(F)c(-c3cnc(OCCCCCn4cc(COCCOCCNC(=O)CC[C@H](NC(=O)c5ccc(NCc6cnc7nc(N)nc(O)c7n6)cc5)C(=O)O)nn4)nc3)nc2c(N[C@H](C)c2cc(C#N)ccc2F)c1Cl [Compound I-16, N2-(4-(((2-amino-4-hydroxypteridin-6-yl)methyl)amino)benzoyl)-N5-(2-(2-((1-(5-((5-(7-chloro-8-(((R)-1-(5-cyano-2-fluorophenyl)ethyl)amino)-3-fluoro-6-methyl-1,5-naphthyridin-2-yl)pyrimidin-2-yl)oxy)pentyl)-1H-1,2,3-triazol-4-yl)methoxy)ethoxy)ethyl)-L-glutamine]
TNFα trimer; FIGS. 2A-2C
  binding mode from SPR sensorgrams: 1:1 binding
TNFα trimer; [4]
  Kd: 50.2 nM
  Rmax: 43.7 RU
  kd: 5.81e-05 s⁻¹
TNFα trimer; SPR, Rmax versus expected Rmax
  Stoichiometry: 0.7
TNFα trimer
  kon: 1160 M⁻¹ s⁻¹

## Cc1nc2cc(F)c(-c3cnc(OCCCCCn4cc(COCCOCCOCCOCCNC(=O)CC[C@H](NC(=O)c5ccc(NCc6cnc7nc(N)nc(O)c7n6)cc5)C(=O)O)nn4)nc3)nc2c(N[C@H](C)c2cc(C#N)ccc2F)c1Cl [Compound I-17, (S)-18-(4-(((2-amino-4-hydroxypteridin-6-yl)methyl)amino)benzamido)-1-(1-(5-((5-(7-chloro-8-(((R)-1-(5-cyano-2-fluorophenyl)ethyl)amino)-3-fluoro-6-methyl-1,5-naphthyridin-2-yl)pyrimidin-2-yl)oxy)pentyl)-1H-1,2,3-triazol-4-yl)-15-oxo-2,5,8,11-tetraoxa-14-azanonadecan-19-oic acid]
TNFα [1]
  degradation and rescue of TNFα: mediated degradation and rescue of TNFα
TNFα [2]
  uptake of labelled TNFα (median fluorescence intensity of pHrodo dye): stimulated uptake of labelled TNFα in THP-1 cells in a dose-dependent manner
TNFα [3]; first 24 hours
  rate of depletion of HiBiT-TNFα from medium: more rapid depletion of HiBiT-TNFα over the first 24 hours
TNFα [3]; sampled to 96 hr
  total depletion of HiBiT-TNFα from the culture medium: greater total depletion of HiBiT-TNFα from the culture medium

## Cc1nc2cc(F)c(-c3cnc(OCCCCCn4cc(COCCOCCOCCOCCNC(=O)[C@H](CCC(=O)O)NC(=O)c5ccc(NCc6cnc7nc(N)nc(O)c7n6)cc5)nn4)nc3)nc2c(N[C@H](C)c2cc(C#N)ccc2F)c1Cl [Compound I-21, (S)-16-(4-(((2-amino-4-hydroxypteridin-6-yl)methyl)amino)benzamido)-1-(1-(5-((5-(7-chloro-8-(((R)-1-(5-cyano-2-fluorophenyl)ethyl)amino)-3-fluoro-6-methyl-1,5-naphthyridin-2-yl)pyrimidin-2-yl)oxy)pentyl)-1H-1,2,3-triazol-4-yl)-15-oxo-2,5,8,11-tetraoxa-14-azanonadecan-19-oic acid]
FOLR2
  Kd: 0.833 nM
FOLR2; read-out: ka
  kon: 5.57e+06 M⁻¹ s⁻¹
TNFα trimer; [4]
  Kd: 80.5 nM
TNFα trimer; [5]
  kon: 963 M⁻¹ s⁻¹
